Experimental data: ChEMBL document CHEMBL3774345, “Synthesis of new diarylamides with pyrimidinyl pyridine scaffold and evaluation of their anti-proliferative effect on cancer cell lines” (Bioorg Med Chem Lett, 2016)

Assays:
T47D = test: Cytotoxicity against human T47D cells assessed as cell growth at 10^-8 M after 24 hrs by SRB assay; assay type: functional; conditions: read-out: Activity
[1] = Cytotoxicity against human RPMI8226 cells assessed as cell growth at 10^-4 M after 24 hrs by SRB assay; assay type: functional; conditions: RPMI-8226, 24 h, read-out: Activity
SR = test: Cytotoxicity against human SR cells assessed as cell growth at 10^-4 M after 24 hrs by SRB assay; assay type: functional; conditions: read-out: Activity
[2] = Cytotoxicity against human SNB75 cells assessed as cell growth at 10^-7 M after 24 hrs by SRB assay; assay type: functional; conditions: SNB-75, 24 h, read-out: Activity
[3] = Cytotoxicity against human SKOV3 cells assessed as cell growth at 10^-7 M after 24 hrs by SRB assay; assay type: functional; conditions: SK-OV-3, 24 h, read-out: Activity
ACHN = test: Cytotoxicity against human ACHN cells assessed as cell growth at 10^-7 M after 24 hrs by SRB assay; assay type: functional; conditions: read-out: Activity
NCI-H522 [4] = test: Cytotoxicity against human NCI-H522 cells after 24 hrs by SRB assay; assay type: functional, cell-based; conditions: NCI-H522, 24 h
[5] = Cytotoxicity against human HCT15 cells after 24 hrs by SRB assay; assay type: functional, cell-based; conditions: HCT-15, 24 h
KM12 [6] = test: Cytotoxicity against human KM12 cells after 24 hrs by SRB assay; assay type: functional; conditions: KM12, 24 h
KM12 [7] = test: Cytotoxicity against human KM12 cells assessed as cell growth at 10^-4 M after 24 hrs by SRB assay; assay type: functional; conditions: KM12, 24 h, read-out: Activity
[8] = Cytotoxicity against human SNB75 cells assessed as cell growth at 10^-4 M after 24 hrs by SRB assay; assay type: functional; conditions: SNB-75, 24 h, read-out: Activity
Malme-3M = test: Cytotoxicity against human MALME-3M cells assessed as cell growth at 10^-4 M after 24 hrs by SRB assay; assay type: functional; conditions: read-out: Activity
M14 = test: Cytotoxicity against human M14 cells assessed as cell growth at 10^-4 M after 24 hrs by SRB assay; assay type: functional; conditions: M14, 24 h, read-out: Activity
[9] = Cytotoxicity against human UACC62 cells assessed as cell growth at 10^-4 M after 24 hrs by SRB assay; assay type: functional; conditions: UACC-62, 24 h, read-out: Activity
[10] = Cytotoxicity against human TK10 cells assessed as cell growth at 10^-4 M after 24 hrs by SRB assay; assay type: functional; conditions: TK-10, 24 h, read-out: Activity
MDA-MB-231 = test: Cytotoxicity against human MDA-MB-231 cells assessed as cell growth at 10^-4 M after 24 hrs by SRB assay; assay type: functional; conditions: MDA-MB-231, 24 h, read-out: Activity
HT-29 = test: Cytotoxicity against human HT-29 cells assessed as cell growth at 10^-6 M after 24 hrs by SRB assay; assay type: functional; conditions: HT-29, 24 h, read-out: Activity
[11] = Cytotoxicity against human SNB75 cells assessed as cell growth at 10^-6 M after 24 hrs by SRB assay; assay type: functional; conditions: SNB-75, 24 h, read-out: Activity
[12] = Cytotoxicity against human OVCAR5 cells assessed as cell growth at 10^-6 M after 24 hrs by SRB assay; assay type: functional; conditions: OVCAR-5, 24 h, read-out: Activity
SN12C = test: Cytotoxicity against human SN12C cells assessed as cell growth at 10^-6 M after 24 hrs by SRB assay; assay type: functional; conditions: read-out: Activity
[13] = Cytotoxicity against human DU145 cells assessed as cell growth at 10^-6 M after 24 hrs by SRB assay; assay type: functional; conditions: DU-145, 24 h, read-out: Activity
MCF7 = test: Cytotoxicity against human MCF7 cells assessed as cell growth at 10^-6 M after 24 hrs by SRB assay; assay type: functional; conditions: MCF7, 24 h, read-out: Activity
[14] = Cytotoxicity against human OVCAR3 cells after 24 hrs by SRB assay; assay type: functional; conditions: OVCAR-3, 24 h
[15] = Cytotoxicity against human OVCAR4 cells after 24 hrs by SRB assay; assay type: functional; conditions: OVCAR-4, 24 h
A549 = test: Cytotoxicity against human A549 cells assessed as cell growth at 10^-8 M after 24 hrs by SRB assay; assay type: functional; conditions: A549, 24 h, read-out: Activity
[16] = Cytotoxicity against human COLO205 cells assessed as cell growth at 10^-8 M after 24 hrs by SRB assay; assay type: functional; conditions: COLO 205, 24 h, read-out: Activity
[17] = Cytotoxicity against human SF295 cells assessed as cell growth at 10^-8 M after 24 hrs by SRB assay; assay type: functional; conditions: SF-295, 24 h, read-out: Activity
SK-MEL-28 = test: Cytotoxicity against human SK-MEL-28 cells assessed as cell growth at 10^-8 M after 24 hrs by SRB assay; assay type: functional; conditions: SK-MEL-28, 24 h, read-out: Activity
[18] = Cytotoxicity against human OVCAR4 cells assessed as cell growth at 10^-8 M after 24 hrs by SRB assay; assay type: functional; conditions: OVCAR-4, 24 h, read-out: Activity
[19] = Cytotoxicity against human HOP92 cells assessed as cell growth at 10^-5 M after 24 hrs by SRB assay; assay type: functional; conditions: HOP-92, 24 h, read-out: Activity
NCI-H522 [20] = test: Cytotoxicity against human NCI-H522 cells assessed as cell growth at 10^-5 M after 24 hrs by SRB assay; assay type: functional; conditions: NCI-H522, 24 h, read-out: Activity
[21] = Cytotoxicity against human SF539 cells assessed as cell growth at 10^-5 M after 24 hrs by SRB assay; assay type: functional; conditions: SF-539, 24 h, read-out: Activity
[22] = Cytotoxicity against human UACC62 cells assessed as cell growth at 10^-5 M after 24 hrs by SRB assay; assay type: functional; conditions: UACC-62, 24 h, read-out: Activity
A498 = test: Cytotoxicity against human A498 cells assessed as cell growth at 10^-5 M after 24 hrs by SRB assay; assay type: functional; conditions: A498, 24 h, read-out: Activity
CCRF-CEM = test: Cytotoxicity against human CCRF-CEM cells assessed as cell growth at 10^-4 M after 24 hrs by SRB assay; assay type: functional; conditions: read-out: Activity
[23] = read-out: LC50 (the source's name)
[24] = read-out: pLC50 (the source's name) (converted)

Q: With `O=C(Nc1cc(-c2cccnc2)nc(NCCCN2CCOCC2)n1)c1cc(Br)cc(C(F)(F)F)c1` as the compound, how does the growth at 0.01 µM (T47D) read?
A: Its growth at 0.01 µM is 91%.

Q: And the growth at 100 µM [1]?
A: Its growth at 100 µM is -24%.

Q: And the growth at 100 µM (SR)?
A: The growth at 100 µM was -1%.

Q: And the growth at 0.1 µM [2]?
A: Its growth at 0.1 µM is 84%.

Q: What about the growth at 0.1 µM [3] of the same compound?
A: The growth at 0.1 µM was 93%.

Q: What about the growth at 0.1 µM (ACHN) of the same compound?
A: The growth at 0.1 µM was 100%.

Q: And the IC50 (NCI-H522 [4])?
A: The IC50 was 1.95 µM.

Q: What about the GI50 (NCI-H522 [4]; read-out: GI50) of the same compound?
A: The GI50 was 1.95 µM.

Q: What about the CC50 (NCI-H522 [4]; [23]) of the same compound?
A: The CC50 was 23.3 µM.

Q: What about the TGI (NCI-H522 [4]; read-out: TGI) of the same compound?
A: The TGI was 5.31 µM.

Q: And the GI50 (NCI-H522 [4]; read-out: pGI50 (converted))?
A: The GI50 was 1.95 µM.

Q: What about the CC50 (NCI-H522 [4]; [24]) of the same compound?
A: The CC50 was 23.4 µM.

Q: And the TGI (NCI-H522 [4]; read-out: pTGI (converted))?
A: Its TGI is 5.37 µM.

Q: And the IC50 [5]?
A: The IC50 was 1.92 µM.

Q: And the GI50 ([5]; read-out: GI50)?
A: The GI50 was 1.92 µM.

Q: And the CC50 [5, 23]?
A: The CC50 was 19.3 µM.

Q: And the TGI ([5]; read-out: TGI)?
A: Its TGI is 5.28 µM.

Q: And the GI50 ([5]; read-out: pGI50 (converted))?
A: The GI50 was 1.91 µM.

Q: What about the CC50 [5, 24] of the same compound?
A: The CC50 was 19.5 µM.

Q: And the TGI ([5]; read-out: pTGI)?
A: Its TGI is 5.25 µM.

Q: And the GI50 (KM12 [6]; read-out: GI50)?
A: Its GI50 is 3.62 µM.

Q: What about the CC50 (KM12 [6]; [23]) of the same compound?
A: The CC50 was 41 µM.

Q: What about the TGI (KM12 [6]; read-out: TGI) of the same compound?
A: The TGI was 13.6 µM.

Q: What about the GI50 (KM12 [6]; read-out: pGI50 (converted)) of the same compound?
A: The GI50 was 3.63 µM.

Q: And the CC50 (KM12 [6]; [24])?
A: Its CC50 is 40.7 µM.

Q: What about the TGI (KM12 [6]; read-out: pTGI (converted)) of the same compound?
A: The TGI was 13.5 µM.

Q: What about the growth at 100 µM (KM12 [7]) of the same compound?
A: Its growth at 100 µM is -90%.

Q: What about the growth at 100 µM [8] of the same compound?
A: Its growth at 100 µM is -99%.

Q: What about the growth at 100 µM (Malme-3M) of the same compound?
A: The growth at 100 µM was -78%.

Q: And the growth at 100 µM (M14)?
A: The growth at 100 µM was -71%.

Q: What about the growth at 100 µM [9] of the same compound?
A: The growth at 100 µM was -90%.

Q: And the growth at 100 µM [10]?
A: The growth at 100 µM was -98%.

Q: And the growth at 100 µM (MDA-MB-231)?
A: The growth at 100 µM was -84%.

Q: And the growth at 1 µM (HT-29)?
A: Its growth at 1 µM is 94%.

Q: And the growth at 1 µM [11]?
A: The growth at 1 µM was 74%.

Q: And the growth at 1 µM [12]?
A: The growth at 1 µM was 92%.

Q: What about the growth at 1 µM (SN12C) of the same compound?
A: The growth at 1 µM was 101%.

Q: What about the growth at 1 µM [13] of the same compound?
A: The growth at 1 µM was 101%.

Q: And the growth at 1 µM (MCF7)?
A: The growth at 1 µM was 77%.

Q: And the GI50 ([14]; read-out: GI50)?
A: The GI50 was 3.7 µM.

Q: And the CC50 [14, 23]?
A: The CC50 was 35.8 µM.

Q: What about the TGI ([14]; read-out: TGI) of the same compound?
A: Its TGI is 12.8 µM.

Q: And the GI50 ([14]; read-out: pGI50 (converted))?
A: The GI50 was 3.72 µM.

Q: What about the CC50 [14, 24] of the same compound?
A: The CC50 was 35.5 µM.

Q: What about the TGI ([14]; read-out: pTGI (converted)) of the same compound?
A: The TGI was 12.9 µM.

Q: And the GI50 ([15]; read-out: GI50)?
A: The GI50 was 3.26 µM.

Q: What about the CC50 [15, 23] of the same compound?
A: Its CC50 is 39.9 µM.

Q: What about the TGI ([15]; read-out: TGI) of the same compound?
A: Its TGI is 14.5 µM.

Q: What about the GI50 ([15]; read-out: pGI50 (converted)) of the same compound?
A: Its GI50 is 3.24 µM.

Q: And the CC50 [15, 24]?
A: Its CC50 is 39.8 µM.

Q: What about the TGI ([15]; read-out: pTGI (converted)) of the same compound?
A: Its TGI is 14.5 µM.

Q: And the growth at 0.01 µM (A549)?
A: The growth at 0.01 µM was 110%.

Q: And the growth at 0.01 µM [16]?
A: The growth at 0.01 µM was 104%.

Q: And the growth at 0.01 µM [17]?
A: Its growth at 0.01 µM is 97%.

Q: What about the growth at 0.01 µM (SK-MEL-28) of the same compound?
A: Its growth at 0.01 µM is 92%.

Q: What about the growth at 0.01 µM [18] of the same compound?
A: The growth at 0.01 µM was 95%.

Q: And the growth at 10 µM [19]?
A: The growth at 10 µM was -10%.

Q: And the growth at 10 µM (NCI-H522 [20])?
A: The growth at 10 µM was -32%.

Q: What about the growth at 10 µM [21] of the same compound?
A: Its growth at 10 µM is -73%.

Q: What about the growth at 10 µM [22] of the same compound?
A: The growth at 10 µM was -50%.

Q: What about the growth at 10 µM (A498) of the same compound?
A: The growth at 10 µM was 13%.

Q: What about the growth at 100 µM (CCRF-CEM) of the same compound?
A: Its growth at 100 µM is -52%.
